Experimental data: patent US7910576B2, “Pyrrole derivatives as P2Y12 antagonists” (Sanofi-Aventis, priority 2007, dated 2011)

Biological target: T1, human P2Y12 receptor (Homo sapiens, UniProt Q9H244)
T1 construct: expressed in transfected cells; host or cells: Chinese Hamster Ovary (CHO) cells, membrane preparation
Assay: Human P2Y12 recombinant cell membrane binding assay
Settings: competition against 33P 2MeS-ADP; membranes of CHO cells with recombinant human P2Y12 receptor; read-out: inhibition MeSADP binding P2Y12, IC 50
Procedure: Human P2Y12 Recombinant Cell Membrane Binding Assay
The ability of a test compound to bind to the P2Y12 receptor was evaluated in a recombinant cell membrane binding assay. In this competitive binding assay, the test compound competed against a radiolabeled agonist for binding to the P2Y12 receptor, expressed on the cell membrane. Inhibition of binding of the labeled material was measured and correlated to the amount and potency of the test compound. This binding assay is a modification of the procedure described by Takasaki, J. et. al, Mol. Pharmacol., 2001, Vol. 60, pg. 432.
As source of P2Y12, a membrane preparation was prepared from Chinese Hamster Ovary (CHO) cells with recombinant expression of the human P2Y12 receptor according to standard procedures.
To a 96-well microtiterplate the following were added: a) 24 μl of assay buffer (10 mM HEPES, 138 mM NaCl, […] KCl, 12 mM NaHCO3, 1 mM EDTA-Na, 0.1% BSA, pH 7.4) b) 1 μL compound in DMSO c) 50 μL P2Y12 CHO membrane (20 μg/ml) and after 15 min at RT d) 25 μL of 1.61 nM ^33P 2MeS— ADP (Perkin Elmer NEN custom synthesis, specific activity ˜2100 Ci/mmol) made in assay buffer.
After 20 min incubation at RT samples were transferred to 96-well microtiter filterplates (Millipore HTS GF/B), pre-wetted for 20 min with 300 μL of stop buffer (10 mM HEPES, 138 mM NaCl pH 7.4) and then filtered through completely with a Millipore plate vacuum. Next, wells were washed four times with 400 μl/well of stop buffer on a plate vacuum. The plate was disassembled and allowed to air dry overnight with the filter side up over night. The filter plates were snapped into adapter plates and 0.1 mL of Microscint 20 Scintillation Fluid (Perkin Elmer #6013621) was added to each well. The top of the filterplate was sealed with plastic plate covers. The sealed filterplate were incubated 2 hours at room temperature. A Microbeta Scintillation Counter was used to measure counts. The binding of compound is expressed as a % inhibition of specific binding, defined by subtraction of the background with 1 mM ADP. Compounds were diluted as 10 mM DMSO stocks and tested in a four-point, five-fold dilution series run in triplicate beginning at 10 μM, final concentration. Data were analyzed using a four-parameter curve fit with a fixed minimum and maximum experimentally defined as the average positive and negative controls on each plate.

T1 sequence (Q9H244 whole entry): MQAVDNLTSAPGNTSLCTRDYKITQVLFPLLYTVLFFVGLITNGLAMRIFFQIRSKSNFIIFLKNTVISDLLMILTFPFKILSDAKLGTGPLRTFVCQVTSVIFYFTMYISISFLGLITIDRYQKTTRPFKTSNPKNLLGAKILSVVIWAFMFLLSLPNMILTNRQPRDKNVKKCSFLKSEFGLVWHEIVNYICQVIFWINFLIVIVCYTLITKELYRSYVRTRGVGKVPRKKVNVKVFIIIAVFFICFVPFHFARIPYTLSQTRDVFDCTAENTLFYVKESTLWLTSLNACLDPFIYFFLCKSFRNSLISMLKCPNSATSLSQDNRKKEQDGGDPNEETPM

## Cc1[nH]c(-c2ccccc2)cc1C(=O)C(=O)N1CCN(c2cccc(C(F)(F)F)c2)CC1 [Example 1, 1-(2-Methyl-5-phenyl-1H-pyrrol-3-yl)-2-[4-(3-trifluoromethyl-phenyl)-piperazin-1-yl]-ethane-1,2-dione]
  IC50: 500 nM

## CCOC(=O)c1cccc(N2CCN(C(=O)C(=O)c3cc(-c4ccccc4)[nH]c3C)CC2)c1 [Example 33, 3-{4-[2-(2-Methyl-5-phenyl-1H-pyrrol-3-yl)-2-oxo-acetyl]-piperazin-1-yl}-benzoic acid ethyl ester]
  IC50: 170 nM

## Cc1[nH]c(-c2ccccc2)cc1C(=O)C(=O)N1CCC(C(=O)c2ccc(Br)cc2)CC1 [Example 51, 1-[4-(4-Bromo-benzoyl)-piperidin-1-yl]-2-(2-methyl-5-phenyl-1H-pyrrol-3-yl)-ethane-1,2-dione]
  IC50: 710 nM

## Cc1[nH]c(-c2ccccc2)cc1C(=O)C(=O)N1CCN(c2ccc(Cl)c(C(F)(F)F)c2)CC1 [Example 10, 1-[4-(4-Chloro-3-trifluoromethyl-phenyl)-piperazin-1-yl]-2-(2-methyl-5-phenyl-1H-pyrrol-3-yl)-ethane-1,2-dione]
  IC50: 700 nM

## Cc1[nH]c(-c2ccccc2)c(/C=C/C(=O)O)c1C(=O)C(=O)N1CCN(c2cccc(C(F)(F)F)c2)CC1 [Example 71, (E)-3-(5-Methyl-4-{2-oxo-2-[4-(3-trifluoromethyl-phenyl)-piperazin-1-yl]-acetyl}-2-phenyl-1H-pyrrol-3-yl)-acrylic acid]
  IC50: 30 nM

## Cc1[nH]c(-c2ccccc2)cc1C(=O)C(=O)N1CCC(C(=O)c2cccc(Cl)c2)CC1 [Example 52, 1-[4-(3-Chloro-benzoyl)-piperidin-1-yl]-2-(2-methyl-5-phenyl-1H-pyrrol-3-yl)-ethane-1,2-dione]
  IC50: 520 nM
